The values below come from US20140025310A1, “METHOD FOR DETERMINING THE EFFICACY OF A COMBINATION THERAPY” (priority 2009, published 2014).

One assay has as its system patient's virus. In words: Susceptibility score of the patient's virus to a drug (% activity from clinical cut-off models). Set-up: species or system HIV-1. To be noted: 1 = fully sensitive, 0 = fully resistant. From the text: Interpretation algorithms provide a resistance call for each available HIV drug. Often this is a three way classification i.e. sensitive (a score of 1), intermediate resistant (a score of 0.5) or resistant (a score of 0). For VircoType (WO 01/79540) the interpretation is for instance based on a statistical model, leading to the definition of so called clinical cut-offs (CCO), that predicts the % activity of a drug (i.e. the susceptibility score) as a function of fold change at the start of the regimen. The % activity left was calculated by dividing the predicted viral load change for the patients' virus with a certain resistance profile by the predicted viral load for a wild-type virus. This is an ordinal value that varies between 0% (or a score of 0) and 100% (or a score of 1). Based on these values, clinical cutoffs (phenotypic threshold values) were derived to classify a virus sample into maximal response, reduced response and minimal response as described in WO 2005/086061.
(§1) Therefore, statistical models were applied to handle these differences. […] E.g.

A further assay concerns HIV-1. To be noted: difference in viral load response (log scale) vs ritonavir boosted lopinavir after 8 weeks of stable treatment; double robust estimation.
Source text: as §1

`O=c1[nH]cnc2c1ncn2[C@H]1CC[C@@H](CO)O1` [DDI] showed a susceptibility score with patient's virus (Patient 1 virus) of 1.
In the case of `O=C1Nc2ccc(Cl)cc2[C@@](C#CC2CC2)(C(F)(F)F)O1` [EFV], in the assay with patient's virus (Patient 2 virus), the susceptibility score entry is on record as “fully active”.
`CC(C)OC(=O)OCOP(=O)(CO[C@H](C)Cn1cnc2c(N)ncnc21)OCOC(=O)OC(C)C.O=C(O)/C=C/C(=O)O` [TDF]: the susceptibility score in the assay with patient's virus (Patient 1 virus) and in the assay on patient's virus (Patient 2 virus) was 1 throughout.
For the compound atazanavir [ATV/r], the susceptibility score with patient's virus (Patient 2 virus) is on record as 1. Moreover, the “Weight (drug weight)” value in the assay on HIV-1 is recorded as −0.02.
For the compound lopinavir [LPV/r], the susceptibility score with patient's virus (Patient 1 virus) was found to be 0.24. Also, the “Weight (drug weight)” value with HIV-1 was 0.
